The text below walks through data of US9802937B2, “Substituted pyrazolo{4,3-D}pyrimidines as kinase inhibitors” (ORIGENIS GMBH, priority 2011, dated 2017).

One assay deals with T1, SYK kinase (Homo sapiens, UniProt P43405).
T1 construct: purchased Invitrogen, Carlsbad
Briefly: SYK Assay (OMNIA KINASE ASSAY, SOX peptide fluorescence). The assay is classed as biochemical. As to conditions: apparent Ki calculated from the IC50 using the Cheng-Prusoff equation; 1 mM ATP, 30° C.; read-out: SYK Activities: Ki. In a few lines: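 Apparent Ki values are derived by Cheng-Prusoff from IC50s of sigmoidal fits of reaction rate against compound concentration. Rates come from chelation-enhanced SOX fluorescence (λex 360/λem 485 nm, read every 30 s over 30 min) as the kinase phosphorylates 10 µM Omnia Tyr 7 peptide at 30 °C, with 1 mM ATP and 0.2 mM DTT.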

The target in another assay is LRRK2 (Homo sapiens, UniProt Q5S007). Put plainly: LRRK2-LRRK2 G2019S-Assay (LanthaScreen Eu Kinase Binding Assay). As to conditions: 5 nM LRRK2 or their mutants, 10 nM tracer 236, RT 1 h; read-out: LRRK2 Activities: IC50. The protocol: In the assay LanthaScreen™ Eu Kinase Binding Assay by Invitrogen Corporation (Carlsbad) the effect of invention of a compound on the phosphorylation is determined by measurement of fluorescence intensity emission ratio based on the binding and displacement of a proprietary, Alexa Fluor® 647-labeled, ATP-competitive kinase inhibitor scaffold (kinase tracer) to the kinase of interest. Binding of the tracer to the kinase is detected using a europium-labeled anti-tag antibody, which binds to the kinase of interest. Simultaneous binding of both the tracer and antibody to the kinase results in a high degree of FRET (fluorescence resonance energy transfer) from the europium (Eu) donor fluorophore to the Alexa Fluor® 647 acceptor fluorophore on the kinase tracer. Binding of an inhibitor to the kinase competes for binding with the tracer, resulting in a loss of FRET. The fluorescence intensity ratio is directly proportional to the amount of peptide phosphorylation.
LRRK2, sequence (Q5S007 970-2527 limits assumed): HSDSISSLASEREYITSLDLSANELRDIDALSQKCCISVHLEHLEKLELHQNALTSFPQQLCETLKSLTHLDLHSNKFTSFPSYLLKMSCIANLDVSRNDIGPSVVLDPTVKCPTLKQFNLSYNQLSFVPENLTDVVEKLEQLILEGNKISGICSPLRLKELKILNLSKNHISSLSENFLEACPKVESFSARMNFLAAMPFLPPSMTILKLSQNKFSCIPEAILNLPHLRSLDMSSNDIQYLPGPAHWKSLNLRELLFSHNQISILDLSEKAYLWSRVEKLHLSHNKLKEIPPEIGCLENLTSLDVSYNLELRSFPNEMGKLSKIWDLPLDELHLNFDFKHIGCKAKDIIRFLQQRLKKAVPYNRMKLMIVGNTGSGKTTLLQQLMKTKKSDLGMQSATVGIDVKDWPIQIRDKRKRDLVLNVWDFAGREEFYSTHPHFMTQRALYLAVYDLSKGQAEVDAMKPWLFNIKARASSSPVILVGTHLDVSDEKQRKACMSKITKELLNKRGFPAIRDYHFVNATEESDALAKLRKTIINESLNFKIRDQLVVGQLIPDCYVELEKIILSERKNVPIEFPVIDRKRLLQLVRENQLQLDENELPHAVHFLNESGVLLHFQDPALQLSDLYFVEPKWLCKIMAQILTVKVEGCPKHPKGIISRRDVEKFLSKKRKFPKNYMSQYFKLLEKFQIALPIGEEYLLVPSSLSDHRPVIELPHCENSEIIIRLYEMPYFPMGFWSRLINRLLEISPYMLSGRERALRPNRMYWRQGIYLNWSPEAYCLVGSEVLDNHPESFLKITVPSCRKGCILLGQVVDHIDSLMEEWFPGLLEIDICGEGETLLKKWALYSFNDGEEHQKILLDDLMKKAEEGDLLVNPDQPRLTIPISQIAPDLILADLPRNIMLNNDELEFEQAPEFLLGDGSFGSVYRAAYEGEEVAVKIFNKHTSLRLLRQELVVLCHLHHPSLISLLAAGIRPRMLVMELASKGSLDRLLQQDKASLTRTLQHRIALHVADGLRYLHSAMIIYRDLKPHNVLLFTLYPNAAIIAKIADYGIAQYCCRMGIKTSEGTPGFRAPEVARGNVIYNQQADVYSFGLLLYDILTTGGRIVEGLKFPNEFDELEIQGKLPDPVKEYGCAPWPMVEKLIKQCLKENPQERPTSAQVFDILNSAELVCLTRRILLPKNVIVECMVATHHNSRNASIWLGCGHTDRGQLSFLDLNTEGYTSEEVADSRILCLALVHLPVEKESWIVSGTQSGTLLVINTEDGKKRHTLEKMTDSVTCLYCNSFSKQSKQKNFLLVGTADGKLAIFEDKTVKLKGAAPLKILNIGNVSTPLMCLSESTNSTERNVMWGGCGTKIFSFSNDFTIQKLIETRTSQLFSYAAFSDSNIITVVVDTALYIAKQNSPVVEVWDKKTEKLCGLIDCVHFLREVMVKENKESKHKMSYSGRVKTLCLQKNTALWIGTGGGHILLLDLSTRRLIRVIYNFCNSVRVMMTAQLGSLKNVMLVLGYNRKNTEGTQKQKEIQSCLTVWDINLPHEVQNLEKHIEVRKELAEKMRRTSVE
To the wells of an 384 well small volume plate (Greiner, Frickenhausen) are added (i) the compound under test in 5% DMSO/distilled water (5 μl), (ii) 5 μl of the kinase antibody mixture resulting in a final concentration 5 nM LRRK2 or their mutants, 2 nM EU-Anti-GST antibody in 1× kinase buffer A. The reaction was started with addition of (iii) 5 μl resulting in a final concentration of 10 nM tracer 236. The assay plate was incubated at RT for 1 h and fluorescence intensitiy readings were collected using a TECAN M1000 at two wavelengthes of λex 340/λem 615 nm and λex 340/λm 665 nm with a delay time of 100 μs and an integration time of 200 μs after 60 minutes. The emission ratio was calculated by division of the acceptor/tracer emission ([…]) by the antibody/donor emission ([…]). The inhibitor concentration was plotted versus the emission ratio to determine the IC50 using XLFit 5.0 (IDBS, Guildford) to fit to a sigmoidal dose response curve with a variable slope.
In general terms: TR-FRET usually uses a lanthanide donor and a delayed reading to cut background.

Some results are limits rather than exact numbers.

As a reminder, the IC50 is the concentration at which inhibition is half-maximal. Consider `c1ccc(-c2nc(Nc3ccc4[nH]ncc4c3)c3[nH]ncc3n2)cc1` [Example #1, N-(1H-indazol-5-yl)-5-phenyl-1H-pyrazolo[4,3-d]pyrimidin-7-amine], for which, on SYK kinase, the Ki was below 10 nM. Further, on LRRK2, the IC50 was 100 to 1000 nM.
In the case of `c1ccc(-c2nc(Nc3ccc4[nH]nnc4c3)c3[nH]ncc3n2)cc1` [Example #2, N-(1H-benzo[d][1,2,3]triazol-5-yl)-5-phenyl-1H-pyrazolo[4,3-d]pyrimidin-7-amine], at SYK kinase, the Ki is below 10 nM. Further, the concentration for half-maximal inhibition (IC50) at LRRK2 lay within 100 to 1000 nM.
`CN(C)c1ccc(Nc2nc(-c3ccccc3)nc3cn[nH]c23)cc1` [Example #4, N1,N1-dimethyl-N4-(5-phenyl-1H-pyrazolo[4,3-d]pyrimidin-7-yl)benzene-1,4-diamine]: at SYK kinase, the Ki is below 10 nM. Besides, the 50% inhibitory concentration (IC50) at LRRK2 is 100 to 1000 nM.
The corresponding values for `COc1ccc(Nc2nc(-c3ccccc3)nc3cn[nH]c23)cc1OC` [Example #6, N-(3,4-dimethoxyphenyl)-5-phenyl-1H-pyrazolo[4,3-d]pyrimidin-7-amine] are below 10 nM and 100 to 1000 nM.
Take `c1ccc(-c2nc(Nc3ccc(N4CCOCC4)cc3)c3[nH]ncc3n2)cc1` [Example #7, N-(4-morpholinophenyl)-5-phenyl-1H-pyrazolo[4,3-d]pyrimidin-7-amine]: the Ki on SYK kinase is below 10 nM. For the same compound, on LRRK2, the IC50 lay in the range of 100 to 1000 nM.
For `Cc1nc2cc(Nc3nc(-c4ccccc4)nc4cn[nH]c34)ccc2[nH]1` [Example #9, N-(2-methyl-1H-benzo[d]imidazol-5-yl)-5-phenyl-1H-pyrazolo[4,3-d]pyrimidin-7-amine], in that order: 10 to 100 nM and 100 to 1000 nM.
For `O=C(O)c1ccc(Nc2nc(-c3ccccc3)nc3cn[nH]c23)cc1` [Example #10, 4-((5-phenyl-1H-pyrazolo[4,3-d]pyrimidin-7-yl)amino)benzoic-acid], at SYK kinase, the Ki is below 10 nM. For the same compound, the 50% inhibitory concentration (IC50) at LRRK2 was in the range of 100 to 1000 nM.
Turning to `c1cc2[nH]ncc2cc1Nc1nc(-c2ccc(N3CCCC3)nc2)nc2cn[nH]c12` [Example #14, N-(1H-indazol-5-yl)-5-(6-(pyrrolidin-1-yl)pyridin-3-yl)-1H-pyrazolo[4,3-d]pyrimidin-7-amine], at SYK kinase, the Ki was 10 to 100 nM. Moreover, the half-maximal inhibitory concentration (IC50) at LRRK2 is 100 to 1000 nM.
With `c1cc(-c2nc(Nc3ccc4cn[nH]c4c3)c3[nH]ncc3n2)ccn1` [Example #16, N-(1H-indazol-6-yl)-5-(pyridin-4-yl)-1H-pyrazolo[4,3-d]pyrimidin-7-amine], the Ki on SYK kinase was below 10 nM. Moreover, at LRRK2, the half-inhibitory concentration (IC50) is 100 to 1000 nM.
On to `CN(C)c1ccc(Nc2nc(-c3ccncc3)nc3cn[nH]c23)cc1` [Example #17, N1,N1-dimethyl-N4-(5-(pyridin-4-yl)-1H-pyrazolo[4,3-d]pyrimidin-7-yl)benzene-1,4-diamine], for which, on SYK kinase, the Ki is 10 to 100 nM. Moreover, the 50% inhibitory concentration (IC50) on LRRK2 fell in the range of 100 to 1000 nM.
As for `COc1ccc(Nc2nc(-c3ccncc3)nc3cn[nH]c23)cc1OC` [Example #18, N-(3,4-dimethoxyphenyl)-5-(pyridin-4-yl)-1H-pyrazolo[4,3-d]pyrimidin-7-amine], the Ki at SYK kinase was 10 to 100 nM. Moreover, on LRRK2, the IC50 was in the range of 100 to 1000 nM.
Turning to `COc1ccc(-c2nc(Nc3ccc4cn[nH]c4c3)c3[nH]ncc3n2)cc1OC` [Example #22, 5-(3,4-dimethoxyphenyl)-N-(1H-indazol-6-yl)-1H-pyrazolo[4,3-d]pyrimidin-7-amine], the Ki on SYK kinase was 10 to 100 nM. Further, at LRRK2, the concentration for half-maximal inhibition (IC50) fell in the range of 100 to 1000 nM.
For the compound `COc1ccc(-c2nc(Nc3ccc(N(C)C)cc3)c3[nH]ncc3n2)cc1OC` [Example #23, N1-(5-(3,4-dimethoxyphenyl)-1H-pyrazolo[4,3-d]pyrimidin-7-yl)-N4,N4-dimethylbenzene-1,4-diamine], on SYK kinase, the Ki was below 10 nM. Moreover, the half-maximal inhibitory concentration (IC50) at LRRK2 lay in the range of 10 to 100 nM.
In the case of `COc1ccc(Nc2nc(-c3ccc(OC)c(OC)c3)nc3cn[nH]c23)cc1OC` [Example #24, N,5-bis(3,4-dimethoxyphenyl)-1H-pyrazolo[4,3-d]pyrimidin-7-amine], at SYK kinase, the Ki was 10 to 100 nM. Further, at LRRK2, the 50% inhibitory concentration (IC50) was in the range of 100 to 1000 nM.
Consider `COc1ccc(-c2nc(Nc3cc[nH]n3)c3[nH]ncc3n2)cc1OC` [Example #41, 5-(3,4-dimethoxyphenyl)-N-(1H-pyrazol-3-yl)-1H-pyrazolo[4,3-d]pyrimidin-7-amine], for which, at LRRK2, the half-maximal inhibitory concentration (IC50) was 100 to 1000 nM.
Turning to `O=S(=O)(NC1CC1)c1cccc(Nc2nc(-c3cccs3)nc3cn[nH]c23)c1` [Example #261, N-cyclopropyl-3-((5-(thiophen-2-yl)-1H-pyrazolo[4,3-d]pyrimidin-7-yl)amino)benzenesulfonamide], at LRRK2, the IC50 is 100 to 1000 nM.
`COc1ccc(Nc2nc(-c3ccc(F)cc3)nc3cn[nH]c23)cc1OC` [Example #270, N-(3,4-dimethoxyphenyl)-5-(4-fluorophenyl)-1H-pyrazolo[4,3-d]pyrimidin-7-amine]: on SYK kinase, the Ki was 10 to 100 nM.
Still for that read-out and setting: the figure for `COc1ccc(Nc2nc(-c3ccc(F)c(F)c3)nc3cn[nH]c23)cc1OC` [Example #272, 5-(3,4-difluorophenyl)-N-(3,4-dimethoxyphenyl)-1H-pyrazolo[4,3-d]pyrimidin-7-amine] is 100 to 1000 nM.
With `Fc1ccc(-c2nc(Nc3ccc(N4CCOCC4)cc3)c3[nH]ncc3n2)cc1F` [Example #273, 5-(3,4-difluorophenyl)-N-(4-morpholinophenyl)-1H-pyrazolo[4,3-d]pyrimidin-7-amine], on SYK kinase, the Ki was 10 to 100 nM.
For the compound `COc1ccc(Nc2nc(-c3cc(F)cc(F)c3)nc3cn[nH]c23)cc1OC` [Example #274, 5-(3,5-difluorophenyl)-N-(3,4-dimethoxyphenyl)-1H-pyrazolo[4,3-d]pyrimidin-7-amine], at SYK kinase, the Ki is 100 to 1000 nM.
As for `COc1ccc(Nc2nc(-c3ccc(F)cc3F)nc3cn[nH]c23)cc1OC` [Example #285, 5-(2,4-difluorophenyl)-N-(3,4-dimethoxyphenyl)-1H-pyrazolo[4,3-d]pyrimidin-7-amine], the Ki on SYK kinase was below 10 nM.
Take `O=C1CCc2ccc(Nc3nc(-c4ccc5c(c4)NC(=O)CO5)nc4cn[nH]c34)cc2N1` [Example #287, 6-(7-((2-oxo-1,2,3,4-tetrahydroquinolin-7-yl)amino)-1H-pyrazolo[4,3-d]pyrimidin-5-yl)-2H-benzo[b][1,4]oxazin-3(4H)-one]: the Ki at SYK kinase is 10 to 100 nM.
For the compound `CS(=O)(=O)c1ccccc1Nc1nc(-c2cccs2)nc2cn[nH]c12` [Example #291, N-(2-(methylsulfonyl)phenyl)-5-(thiophen-2-yl)-1H-pyrazolo[4,3-d]pyrimidin-7-amine], the Ki on SYK kinase was 10 to 100 nM.
The same measure, in the same setting: the figure for `CN(C)Cc1cccc(Nc2nc(-c3cccs3)nc3cn[nH]c23)c1` [Example #292, N-(3-((dimethylamino)methyl)phenyl)-5-(thiophen-2-yl)-1H-pyrazolo[4,3-d]pyrimidin-7-amine] is 100 to 1000 nM; for `CC(=O)N1CCN(c2ccc(Nc3nc(-c4ccc5c(c4)NC(=O)CO5)nc4cn[nH]c34)cc2)CC1` [Example #298, 6-(7-((4-(4-acetylpiperazin-1-yl)phenyl)amino)-1H-pyrazolo[4,3-d]pyrimidin-5-yl)-2H-benzo[b][1,4]oxazin-3(4H)-one] it is below 10 nM; for `COc1ccc(Nc2nc(-c3ccc4c(c3)NC(=O)CO4)nc3cn[nH]c23)cc1OC` [Example #299, 6-(7-((3,4-dimethoxyphenyl)amino)-1H-pyrazolo[4,3-d]pyrimidin-5-yl)-2H-benzo[b][1,4]oxazin-3(4H)-one] it is 10 to 100 nM.
For the compound `CC(C)(C)c1cccc(Nc2nc(-c3cccs3)nc3cn[nH]c23)c1` [Example #305, N-(3-(tert-butyl)phenyl)-5-(thiophen-2-yl)-1H-pyrazolo[4,3-d]pyrimidin-7-amine], at SYK kinase, the Ki is 100 to 1000 nM.
Take `COC(=O)c1cccc(-c2nc(Nc3ccc4cn[nH]c4c3)c3[nH]ncc3n2)c1` [Example #307, methyl 3-(7-((1H-indazol-6-yl)amino)-1H-pyrazolo[4,3-d]pyrimidin-5-yl)benzoate]: the Ki on SYK kinase is 100 to 1000 nM.
As to `CN(C)Cc1ccc(Nc2nc(-c3cccc(N)c3)nc3cn[nH]c23)cc1` [Example #309, 5-(3-aminophenyl)-N-(4-((dimethylamino)methyl)phenyl)-1H-pyrazolo[4,3-d]pyrimidin-7-amine], the Ki on SYK kinase was 10 to 100 nM.
Take `CN(C)Cc1cccc(Nc2nc(-c3ccccc3F)nc3cn[nH]c23)c1` [Example #312, N-(3-((dimethylamino)methyl)phenyl)-5-(2-fluorophenyl)-1H-pyrazolo[4,3-d]pyrimidin-7-amine]: the Ki at SYK kinase is 100 to 1000 nM.
